Assay results as given in patent US8080529B2, “Macrolides with anti-inflammatory activity” (Glaxo Group Limited, priority 2005, dated 2011).
Where two headings read alike, the source gives them in different places.

Key:
A549 = assay: Cytotoxicity assay (MTT), A549 cell line; format: cell-based; conditions: 24 h
Summary of the method: (§1)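 Hep G2 and A549 cells were cultured 24 h at 37° C in RPM medium with test compounds at 50 μM and 12.5 μM. MTT was added for 0.5-2 h and formazan read at 490 nm. Growth value calculated as OD490 treated/OD490 nontreated ×100.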

TNF-α [1] = assay: Inhibition of TNF-α production by stimulated human peripheral blood leukocytes in vitro; format: cell-based; conditions: Homo sapiens, Leukocyte, read-out: Percentage of inhibition of TNF-α production
Summary of the method: (§2)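 Dextran-sedimented human PBL (3–5×10^6/well) preincubated 2 h at 37 °C with compounds at 50 μM or 10 μM, then stimulated overnight with LPS 2 μg/mL, PMA 1 μg/mL or zymosan 120 μg/mL. Supernatant cytokines quantified by sandwich ELISA; % inhibition versus stimulated untreated controls.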

granulocytes [2] = format: in vitro ADME; conditions: human, 180 min, 10 μM
Experimental: (§3) Granulocytes were obtained from heparinized whole blood using density gradiant centrifugation. Erythrocytes were sedimented on 3% dextran T-500 (Amersham Pharmacia Biotech AB, Uppsala, Sweden). Leukocytes were centrifuged on Ficoll (Amersham Pharmacia Biotech AB, Uppsala, Sweden) for 35 min at 600 g at 20° C. The pellet of granulocytes was cleared from remaining erythrocytes by a brief hypotonic lysis.
7.5×10^6 granulocytes, isolated as described above, were suspended in 3 mL of RPMI 1640 (Institute of Immunology, Croatia) containing 10 μM of tested macrolide. Samples were incubated at 37° C. for 180 min. Following incubation, the samples were centrifuged through the layer of Poly(dimethylsiloxane-co-diphenylsiloxane), dihydroxy terminated-silicone oil (Aldrich Chemical Company, Milwaukee, USA). The pellet was resuspended in 0.5% Triton X-100 (Sigma, St. Louis, USA) in deionized water (MilliQ, Millipore Corporation, Bedford, USA). The suspension was sonicated, proteins were precipitated with acetonitrile, and the concentration of macrolide in the supernatants was determined by liquid chromatography-mass spectrometry (LC-MS).
Intracellular concentrations of the test compounds were calculated from the mean cell number recovered after centrifuging through silicone oil. According to the literature, about 1 million neutrophils is considered to have a volume of 0.24 μL (Vazifeh et al., Antimicrob Agents Chemo. 1997; 41: 2099-2107). To estimate the extent of macrolide accumulation, the intracellular to extracellular concentration ratio (I/E) was calculated, where E (due to a large volume of incubation medium) was taken as constant (10 μM). Results are expressed relative to azithromycin according to the following equation: % of azithromycin uptake =(I/E of a substance/I/E of azithromycin)×100. I/E values obtained for azithromycin were 164±10.

IL-1α = assay: Inhibition of IL-1 production by stimulated human peripheral blood leukocytes in vitro; format: cell-based; conditions: Homo sapiens, Leukocyte, read-out: Percentage of inhibition of IL-1α production
Hep G2 = assay: Cytotoxicity assay (MTT), Hep G2 cell line; format: cell-based; conditions: 24 h
Summary of the method: as §1

IL-6 = assay: Inhibition of IL-6 production by stimulated human peripheral blood leukocytes in vitro; format: cell-based; conditions: Homo sapiens, Leukocyte, read-out: Percentage of inhibition of IL-6 production
Summary of the method: as §2

IL-8 = assay: Inhibition of IL-8 production by stimulated human peripheral blood leukocytes in vitro; format: cell-based; conditions: Homo sapiens, Leukocyte, read-out: Percentage of inhibition of IL-8 production
Summary of the method: as §2

TNF-α [3] = assay: Lipopolysaccharide induced TNF-α production in Balb/cJ mice; format: in vivo; conditions: Mus musculus, ip, 1.5 h; 10 mg/kg intraperitoneally, 30 min before LPS; 90 min after LPS; read-out: % inhibition of TNF-α production (plasma)
Experimental: Male Balb/cJ mice (Iffa Credo, France) weighing 25-33 g were randomly grouped (n=7 in test group, 7 in positive control group, 4 in negative control group). Test compounds, as well as vehicle [0.125% carboxymethyl-cellulose (Sigma, USA)], were administered to the mice intraperitoneally. Test compounds were administered at a dose of 10 mg/kg of body weight, in a volume of 10 mL/kg of body weight. Thirty minutes later, a sterile solution of lipopolysaccharide (LPS) (Sigma, USA) in saline was intraperitoneally administered at a concentration and volume of 25 μg/0.2 mL/mouse to each animal, except those in negative control. Ninety minutes following administration, all animals were sacrificed by puncturing a. carotis communis. The plasma concentration of TNF-α was determined by sandwich ELISA, using capture and detection antibodies (R&D, USA) according to manufacturer's recommendations. Results are presented in the following table as percent of inhibition of TNF-α production in comparison to the positive control (stimulated, but untreated animals).

[4] = system: human peripheral blood mononuclear cells (PBMC); assay: Effects on human T-cell proliferation in vitro (3H-thymidine incorporation); format: cell-based; conditions: Homo sapiens, PBMC, read-out: Percentage of inhibition of proliferation of stimulated PBMC
Experimental: The influence of the various test compounds at two different concentrations (50 μM and 10 μM) on cell proliferation of human peripheral blood mononuclear cells (PBMC) was assessed. […] The cells were pulsed with 1 μCi of ^3H-thymidine (Amersham, USA) per well during the last 18 h of the culture, and were harvested on the 96-well filter (Packard Bioscience, USA) using a multiple cell harvester (Packard, USA). The incorporation of ^3H-thymidine in activated cells were measured using TopCount NXT (Packard, USA). […] The positive control refers to LPS-, PMA- or zymosan-stimulated samples that were not treated with test compounds.

granulocytes [5] = assay: Inhibition of degranulation of granulocytes (free neutrophil elastase activity); format: cell-based, human; conditions: Homo sapiens, Neutrophil, compound 50 μM, read-out: Percentage of inhibition of degranulation of granulocytes
Experimental: as §3
1×10^6 granulocytes, isolated as described above, were resuspended in RPMI-1640 medium (Institute of Immunology, Croatia), and were incubated with 10 or 50 μM of test compound together with cytochalasine B (5 μg/mL) for 2 h at 37° C. Degranulation then was induced by the addition of 0.1 μM fMLP (Sigma, USA) or 0.5 μM A23187 (Calbiochem, USA). The activity of free neutrophil elastase was determined with a chromogenic substrate specific for human neutrophil elastase, such as N-(methoxysuccinyl)-L-alanyl-L-alanyl-L-prolyl-L-valine 4-nitroanilide (Sigma Chemical Company, St Louis, Mo., USA). Elastase activity, as a marker of primary granules, was assessed in supernatant using a spectrophotometer at an absorbance of 405 nm.
Results are expressed as the percent of inhibition of degranulation in unstimulated cells, and in stimulated cells treated with fMLP or A23187.

CC[C@H]1OC(=O)[C@H](C)[C@@H](O[C@H]2C[C@@](C)(OC)[C@@H](OCCCN)[C@H](C)O2)[C@H](C)[C@@H](O[C@@H]2O[C@H](C)C[C@H](N(C)C)[C@H]2O)[C@](C)(O)C[C@@H](C)CN(C)[C@H](C)[C@H]2OC(=O)O[C@@]21C [Example 51C, 11,12-Carbonate-11,12-dideoxy-4″-O-(3-aminopropyl)-azithromycin] was tested, and the “Percentage of inhibition of cell growth” value (A549; 12.5 μM) was 0%, the “Percentage of inhibition of cell growth” value (A549; 50 μM) was 0% and the inhibition at 10 µM (TNF-α [1]; LPS-stimulated PBL) was 5%. It also gave an inhibition at 10 µM (TNF-α [1]; PMA-stimulated PBL) of 18%, an inhibition at 10 µM (TNF-α [1]; zymosan-stimulated PBL) of 38% and an inhibition at 50 µM (TNF-α [1]; LPS-stimulated PBL) of 0%. For the same compound, the inhibition at 50 µM (TNF-α [1]; PMA-stimulated PBL) was 4%, the inhibition at 50 µM (TNF-α [1]; zymosan-stimulated PBL) was 0% and the “Uptake (% azithromycin)” value (granulocytes [2]) was 122 % azithromycin. It also gave an inhibition at 10 µM (IL-1α; LPS-stimulated PBL) of 2%, an inhibition at 10 µM (IL-1α; PMA-stimulated PBL) of 0% and an inhibition at 10 µM (IL-1α; zymosan-stimulated PBL) of 62%. For the same compound, the inhibition at 50 µM (IL-1α; LPS-stimulated PBL) was 0%, the inhibition at 50 µM (IL-1α; PMA-stimulated PBL) was 0% and the inhibition at 50 µM (IL-1α; zymosan-stimulated PBL) was 0%. The “Percentage of inhibition of cell growth” value (Hep G2; 12.5 μM) was 15%, the “Percentage of inhibition of cell growth” value (Hep G2; 50 μM) was 7% and the inhibition at 10 µM (IL-6; LPS-stimulated PBL) was 4%. The inhibition at 10 µM (IL-6; PMA-stimulated PBL) was 27%, the inhibition at 10 µM (IL-6; zymosan-stimulated PBL) was 42% and the inhibition at 50 µM (IL-6; LPS-stimulated PBL) was 0%. The inhibition at 50 µM (IL-6; PMA-stimulated PBL) was 6%, the inhibition at 50 µM (IL-6; zymosan-stimulated PBL) was 0% and the inhibition at 10 µM (IL-8; LPS-stimulated PBL) was 0%. For the same compound, the inhibition at 10 µM (IL-8; PMA-stimulated PBL) was 12%, the inhibition at 10 µM (IL-8; zymosan-stimulated PBL) was 26% and the inhibition at 50 µM (IL-8; LPS-stimulated PBL) was 0%. The inhibition at 50 µM (IL-8; PMA-stimulated PBL) was 0% and the inhibition at 50 µM (IL-8; zymosan-stimulated PBL) was 0%.
For CC[C@H]1OC(=O)[C@H](C)[C@@H](O[C@H]2C[C@@](C)(OC)[C@@H](OC(=O)CCN3CCN(CCN(CC)CC)CC3)[C@H](C)O2)[C@H](C)[C@@H](O[C@@H]2O[C@H](C)C[C@H](N(C)C)[C@H]2O)[C@](C)(OC)C[C@@H](C)C(=O)N[C@H](C)[C@@H](O)[C@]1(C)O [Example 14], the inhibition in vivo at 10 mg/kg (TNF-α [3]) was 96%, the “Percentage of inhibition of cell growth” value (A549; 12.5 μM) was 4% and the “Percentage of inhibition of cell growth” value (A549; 50 μM) was 0%. For the same compound, the “Percentage of inhibition of cell growth” value (Hep G2; 12.5 μM) was 0%, the “Percentage of inhibition of cell growth” value (Hep G2; 50 μM) was 0% and the inhibition at 10 µM ([4]; PHA) was 23%. The inhibition at 50 µM ([4]; PHA) was 99%, the inhibition at 10 µM ([4]; PMA + iono.) was 24% and the inhibition at 50 µM ([4]; PMA + iono.) was 91%.
Work on CC[C@H]1OC(=O)[C@H](C)[C@@H](O[C@H]2C[C@@](C)(OC)[C@@H](O)[C@H](C)O2)[C@H](C)[C@@H](O[C@@H]2O[C@H](C)C[C@H](N(C)C)[C@H]2O)[C@](C)(O)C[C@@H](C)C(=O)[C@H](C)[C@@H](O)[C@]1(C)O [erythromycin, reference compound] yielded an inhibition at 50 µM (granulocytes [5]; A23187 0.5 μM) of 0% and an inhibition at 50 µM (granulocytes [5]; fMLP 0.1 μM) of 23%.
In the case of CC[C@H]1OC(=O)[C@H](C)[C@@H](O[C@H]2C[C@@](C)(OC)[C@@H](OC(=O)CCN3CCN(CCCN(CC)CC)CC3)[C@H](C)O2)[C@H](C)[C@@H](O[C@@H]2O[C@H](C)C[C@H](N(C)C)[C@H]2O)[C@](C)(OC)C[C@@H](C)C(=O)N[C@H](C)[C@@H](O)[C@]1(C)O [Example 31], the inhibition in vivo at 10 mg/kg (TNF-α [3]) was 92%, the “Percentage of inhibition of cell growth” value (A549; 12.5 μM) was 0% and the “Percentage of inhibition of cell growth” value (A549; 50 μM) was 0%. The “Percentage of inhibition of cell growth” value (Hep G2; 12.5 μM) was 0%, the “Percentage of inhibition of cell growth” value (Hep G2; 50 μM) was 0% and the inhibition at 10 µM ([4]; PHA) was 23%. The inhibition at 50 µM ([4]; PHA) was 99%, the inhibition at 10 µM ([4]; PMA + iono.) was 24% and the inhibition at 50 µM ([4]; PMA + iono.) was 91%.
